{"source": "PubChem BioAssay (NCI)", "system": "P388/ADR leukemia", "assay": "NCI tumour cell line growth inhibition, 48 h", "note": "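Interpolation was linear, between the two tested concentrations surrounding the appropriate level; five concentrations were tested over 48 hours in 96-well plates. TGI: total growth inhibition.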"}
{"smiles": "Nc1ncnc2c(C3OC(CO)C(O)C3O)[nH]nc12", "note": "(stereo unspecified)", "values": [{"measurement": "TGI", "result": 123, "unit": "µM"}]}
